Test results reported in patent US20120083501A1, “COMPOUNDS FOR TREATING NEURODEGENERATIVE DISEASES” (priority 2010, published 2012).

What follows are molecules tested against T1, BACE1 (Homo sapiens, UniProt P56817) (assay: Cellular BACE1 Inhibition Assay (in vitro cellular Amyloidβ 1-40 production, HTRF immunoassay)). Conditions: inhibition of Amyloidβ 1-40 production; HEK-293 cells stably transfected with wild type APP695; 48 hours incubation; single assay or mean of multiple assays.
T1 construct: endogenous in cells; host or cells: HEK-293 cells stably transfected with wild type APP695
T1 sequence (P56817 46-501): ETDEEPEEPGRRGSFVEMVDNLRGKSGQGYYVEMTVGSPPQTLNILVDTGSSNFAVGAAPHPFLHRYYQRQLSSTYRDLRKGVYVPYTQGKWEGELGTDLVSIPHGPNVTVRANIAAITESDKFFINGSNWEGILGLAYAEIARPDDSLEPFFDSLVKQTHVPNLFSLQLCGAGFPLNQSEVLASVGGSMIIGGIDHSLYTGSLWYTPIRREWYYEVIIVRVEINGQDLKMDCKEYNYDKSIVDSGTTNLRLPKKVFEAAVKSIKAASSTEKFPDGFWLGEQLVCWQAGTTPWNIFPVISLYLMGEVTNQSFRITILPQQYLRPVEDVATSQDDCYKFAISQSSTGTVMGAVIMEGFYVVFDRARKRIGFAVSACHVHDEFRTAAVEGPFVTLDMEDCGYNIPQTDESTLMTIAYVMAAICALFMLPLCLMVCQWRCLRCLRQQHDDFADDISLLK
Assay type: cell-based
Experimental: The BACE inhibition properties of the compounds of the invention may be determined by the following in vitro cellular Amyloidβ 1-40 production assay.
Inhibition of Amyloidβ 1-40 production was determined by incubating cells with compound for 48 hours and quantifying the level of Amyloidβ 1-40 using an homogeneous time-resolved fluorescence (“HTRF”) immunoassay.
Materials and Methods: HEK-293 cells stably transfected with a DNA construct containing the coding sequence for the wild type APP695 sequence were grown in Dulbecco's Modified Eagle Medium (“DMEM”) supplemented with 10% fetal bovine serum, penicillin/streptomycin and 150 μg/mL G418. Cells were plated in 96-well plates at 35,000 cells/well and allowed to attach for 8-12 hours. Media was changed to DMEM supplemented with 10% fetal bovine serum, penicillin/streptomycin 15 minutes prior to compound addition. Diluted compounds were then added at a final concentration of 0.5% DMSO. After 48 hours, 4 μL of media from each well was added to a corresponding well of a 384 well plate (Perkin Elmer Cat#6008280) containing the HTRF reagents. HTRF reagents were obtained from the CisBio Amyloidβ 1-40 peptide assay kit (Cat# 62B40PEC) and were prepared as follows anti-peptide β (1-40)-Cryptate and anti-peptide β (1-40)-XL655 were stored in 2 plate aliquots at −80° C. Diluent and Reconstitution buffer were stored at 4° C. Aliquots of the two antibodies were diluted 1:100 with Reconstitution buffer, and this mixture was diluted 1:2 with Diluent. 12 μL of the reagent mixture was added to the required wells of the 384 well assay plate. The assay plate was incubated at 4° C. for 17 hours and then analyzed for fluorescence at 665 and 620 nm. The reported IC50 below may be from a single assay or the mean of multiple assays.

Row | IC50 [nM] | Compound
1 | 1.8 | CN1C(=O)[C@]2(N=C1N)c1cc(-c3cccnc3F)ccc1O[C@@]1(C)CCCO[C@@H]12 (relative stereo) [Example 64, (4S*,4a′S*,10a′R*)-2-amino-8′-(2-fluoropyridin-3-yl)-1,4a′-dimethyl-3′,4′,4a′,10a′-tetrahydro-2′H-spiro[imidazole-4,10′-pyrano[3,2-b]chromen]-5(1H)-one]
2 | 13.2 | C[C@H]1OCCC2Oc3ccc(-c4cncc(Cl)c4)cc3[C@]3(N=C(N)N(C)C3=O)[C@@H]21 (mixture of isomers) [Example 50, (1′R*,4R*,4a′R*,10a′R*)-2-amino-8′45-chloropyridin-3-yl)-1,1′-dimethyl-3′,4′,4a′,10a'-tetrahydro-1′H-spiro[imidazole-4,10′-pyrano[4,3-b]chromen]-5(1H)-one]
3 | 51.2 | CCOC1CCC2C(C1)Oc1ccc(-c3cc(F)cc(Cl)c3)cc1C21N=C(N)N(C)C1=O (centres unmarked) [Example 28, 2-amino-7′-(3-chloro-5-fluorophenyl)-3′-ethoxy-1-methyl-l′,2′,3′,4′,4a′,9a′-hexahydrospiro[imidazole-4,9′-xanthen]-5(1H)-one]
4 | 1670 | CN1CC[C@@H]2Oc3ccc(-c4cc(F)cc(Cl)c4)cc3C3(N=C(N)N(C)C3=O)[C@@H]2C1 (stereo partly drawn) [Example 34, (4aS,10aS)-2′-amino-8-(3-chloro-5-fluorophenyl)-1′,2-dimethyl-1,2,3,4,4a,10a-hexahydrospiro[chromeno[3,2-c]pyridine-10,4′-imidazol]-5′(1′H)-one]
5 | 3.9 | CN1C(=O)C2(N=C1N)c1cc(-c3cccnc3F)ccc1O[C@H]1CC(O)CC[C@@H]12 (some centres unmarked) [Example 96, (4a′S,9a′R)-2-amino-7′-(2-fluoropyridin-3-yl)-3′-hydroxy-1-methyl-1′,2′,3′,4′,4a′,9a′-hexahydrospiro[imidazole-4,9′-xanthen]-5(1H)-one]
6 | 1.5 | CN1C(=O)C2(N=C1N)c1cc(-c3cccc(Cl)c3)ccc1OC1CC(O)CCC12 (centres unmarked) [Example 2, 2-amino-7′-(3-chlorophenyl)-3′-hydroxy-1-methyl-1′,2′,3′,4′,4a′,9a′-hexahydrospiro[imidazole-4,9′-xanthen]-5(1H)-one]
7 | 221 | CN1C(=O)C2(N=C1N)c1cc(-c3cccc(OC(F)F)c3)ccc1OC1CC(F)(F)CCC12 (centres unmarked) [Example 36, 2-amino-7′-(3-(difluoromethoxy)phenyl)-3′,3′-difluoro-1-methyl-1′,2′,3′,4′,4a′,9a′-hexahydrospiro[imidazole-4,9′-xanthen]-5(1H)-one]
8 | 0.8 | CN1C(=O)C2(N=C1N)c1cc(-c3cncc(Cl)c3)ccc1C[C@H]1CCOC[C@@H]12 (stereo partly drawn) [Example 69, (4aS,10aS)-2′-amino-8-(5-chloropyridin-3-yl)-1′-methyl-1,3,4,4a,5,10a-hexahydrospiro[benzo[g]isochromene-10,4′-imidazol]-5′(1′H)-one]
9 | 32.2 | CN1C(=O)C2(N=C1N)c1cc(-c3cncc(Cl)c3)ccc1O[C@H]1CCCC[C@H]12 (relative stereo) [Example 33, cis 2-amino-7′-(5-chloropyridin-3-yl)-1-methyl-1′,2′,3′,4′,4a′,9a′-hexahydrospiro[imidazole-4,9′-xanthen]-5(1H)-one]
10 | 35.9 | CN1C(=O)C2(N=C1N)c1cc(-c3cc(F)cc(Cl)c3)ccc1OC1CC(C)(O)CCC12 (centres unmarked) [Example 7, 2-amino-7′-(3-chloro-5-fluorophenyl)-3′-hydroxy-1,3′-dimethyl-1′,2′,3′,4′,4a′,9a′-hexahydrospiro[imidazole-4,9′-xanthen]-5(1H)-one]
11 | 172 | CN1C(=O)C2(N=C1N)c1cc(-c3cc(F)cc(Cl)c3)ccc1OC1CC(F)(F)CCC12 (centres unmarked) [Example 20, 2-amino-7′-(3-chloro-5-fluorophenyl)-3′,3′-difluoro-1-methyl-1′,2′,3′,4′,4a′,9a′-hexahydrospiro[imidazole-4,9′-xanthen]-5(1H)-one]
12 | 48.3 | CN1C(=O)C2(N=C1N)c1cc(-c3cccnc3F)ccc1O[C@H]1CCCC[C@H]12 (relative stereo) [Example 14, cis 2-amino-7′-(2-fluoropyridin-3-yl)-1-methyl-1′,2′,3′,4′,4a′,9a′-hexahydrospiro[imidazole-4,9′-xanthen]-5(1H)-one]
13 | 1.5 | CN1C(=O)[C@]2(N=C1N)c1cc(-c3cncc(Cl)c3)ccc1O[C@H]1CCCO[C@@H]12 [Example 78, (4S,4a′S,10a′R)-2-amino-8′-(5-chloropyridin-3-yl)-1-methyl-3′,4′,4a′,10a′-tetrahydro-2′H-spiro[imidazole-4,10′-pyrano[3,2-b]chromen]-5(1H)-one]
14 | 22.3 | COC1CC[C@@H]2[C@@H](C1)Oc1ccc(-c3cc(F)cc(Cl)c3)cc1C21N=C(N)N(C)C1=O (some centres unmarked) [Example 30, (4a′R,9a′S)-2-amino-7′-(3-chloro-5-fluorophenyl)-3′-methoxy-1-methyl-1′,2′,3′,4′,4a′,9a′-hexahydrospiro[imidazole-4,9′-xanthen]-5(1H)-one]
15 | 74.1 | CN1C(=O)C2(N=C1N)c1cc(-c3cncc(Cl)c3)ccc1OC1CC(F)(F)CCC12 (centres unmarked) [Example 17, 2-amino-7′-(5-chloropyridin-3-yl)-3′,3′-difluoro-1-methyl-1′,2′,3′,4′,4a′,9a′-hexahydrospiro[imidazole-4,9′-xanthen]-5(1H)-one]
16 | 554 | CN1C(=O)C2(N=C1N)c1cc(-c3cc(F)cc(Cl)c3)ccc1OC1CC(OCC3CC3)CCC12 (centres unmarked) [Example 29, 2-amino-7′-(3-chloro-5-fluorophenyl)-3′-(cyclopropylmethoxy)-1-methyl-1′,2′,3′,4′,4a′,9a′-hexahydrospiro[imidazole-4,9′-xanthen]-5(1H)-one]
17 | 125 | CN1C(=O)C2(N=C1N)c1cc(-c3cncnc3)ccc1OC1CC(F)(F)CCC12 (centres unmarked) [Example 18, 2-amino-3′,3′-difluoro-1-methyl-7′-(pyrimidin-5-yl)-1′,2′,3′,4′,4a′,9a′-hexahydrospiro[imidazole-4,9′-xanthen]-5(1H)-one]
18 | 4.6 | CN1C(=O)[C@]2(N=C1N)c1cc(-c3cncc(C#N)c3)ccc1O[C@H]1CCCO[C@@]12C [Example 86, 5-((4S,4a′S,10a′R)-2-amino-1,10a′-dimethyl-5-oxo-1,3′,4′,4a′,5,10a′-hexahydro-2′H-spiro[imidazole-4,10′-pyrano[3,2-b]chromen]-8′-yl)nicotinonitrile]
19 | 18.3 | CN1C(=O)[C@]2(N=C1N)c1cc(-c3cccnc3F)ccc1O[C@@]1(C)CCCO[C@H]12 (racemic) [Example 55, (4S*,4a′S*,10a′S*)-2-amino-8′-(2-fluoropyridin-3-yl)-1,4a′-dimethyl-3′,4′,4a′,10a′-tetrahydro-2′H-spiro[imidazole-4,10′-pyrano[3,2-b]chromen]-5 (1H)-one]
20 | 1.3 | CN1C(=O)C2(N=C1N)c1cc(-c3cncc(Cl)c3)ccc1OC1CC(O)CCC12 (centres unmarked) [Example 3, 2-amino-7′-(5-chloropyridin-3-yl)-3′-hydroxy-1-methyl-1′,2′,3′,4′,4a′,9a′-hexahydrospiro[imidazole-4,9′-xanthen]-5(1H)-one]
21 | 11.4 | CN1C(=O)C2(N=C1N)c1cc(-c3cc(F)cc(Cl)c3)ccc1OC1CCCC[C@@H]12 (some centres unmarked) [Example 12]
22 | 2 | CN1C(=O)C2(N=C1N)c1cc(-c3cc(F)cc(Cl)c3)ccc1OC1CC(O)CCC12 (centres unmarked) [Example 1, 2-amino-7′-(3-chloro-5-fluorophenyl)-3′-hydroxy-1-methyl-1′,2′,3′,4′,4a′,9a′-hexahydro spiro[imidazole-4,9′-xanthen]-5(1H)-one]
23 | 168 | CN1C(=O)C2(N=C1N)c1cc(-c3cc(F)cc(Cl)c3)ccc1OC1CC3(CCC12)OCCO3 (centres unmarked) [Example 10, 2″-amino-7′-(3-chloro-5-fluorophenyl)-1″-methyl-1″,2′,4′,4′a,5″,9′a-hexahydro-1′H-dispiro[1,3-dioxolane-2,3′-xanthene-9′,4″-imidazole]-5″-one]
24 | 2.3 | CN1C(=O)[C@]2(N=C1N)c1cc(-c3cncc(Cl)c3)ccc1O[C@]1(C)CCCO[C@H]12 (relative stereo) [Example 62, (4S*,4a′R*,10a′S*)-2-amino-8′-(5-chloropyridin-3-yl)-1,4a′-dimethyl-3′,4′,4a′,10a′-tetrahydro-2′H-spiro[imidazole-4,10′-pyrano[3,2-b]chromen]-5(1H)-one]
25 | 5.5 | CN1C(=O)C2(N=C1N)c1cc(-c3cc(F)cc(Cl)c3)ccc1OC1CC(=O)CCC12 (centres unmarked) [Example 8, 2-amino-7′-(3-chloro-5-fluorophenyl)-1-methyl-1′,4′,4a′,9a′-tetrahydrospiro[imidazole-4,9′-xanthene]-3′,5(1H, 2′H)-dione]
26 | 4.3 | CN1C(=O)[C@]2(N=C1N)c1cc(-c3cccc(C#N)c3)ccc1O[C@]1(C)CCCO[C@H]12 (relative stereo) [Example 63, 3-((4S*,4a′R*,10a′S*)-2-amino-1,4a′-dimethyl-5-oxo-1,3′,4′,4a′,5,10a′-hexahydro-2′H-spiro[imidazole-4,10′-pyrano[3,2-b]chromen]-8′-yl)benzonitrile]
